Test results reported in patent US20260224549A1, “COMPOUNDS, COMPOSITIONS, AND METHODS FOR TREATING, AMELIORATING, AND/OR PREVENTING PAIN” (priority 2023, published 2026).
Entries after “also recorded” stand apart in the source; their conditions may differ. Where two headings read alike, the source gives them in different places.

Key:
[1] = cited from earlier work
[2] = Metabolism in liver microsomes and hepatocytes in vitro; assay type: in vitro ADME
[3] = Phase I single ascending dose pharmacokinetics of metabolite Compound II in plasma; assay type: in vivo, human; conditions: for AUC(0-t): po; for Tmax: read-out: Tmax, Median
Excerpt: The study comprised a single ascending dose (SAD), sequential cohort study, incorporating a food effect (FE) evaluation. Up to 40 subjects were to be studied in 5 cohorts (Cohorts A1 to A5), each cohort consisting of 8 subjects.
The actual blood sampling dates and times relative to dosing time were listed by subject and nominal sampling time, with time deviation calculated, for all subjects with available plasma concentration data.
For PK concentration data, the number of non-missing values, number of below limit of quantification (BLQ) values, arithmetic mean, standard deviation, median, minimum, maximum, coefficient of variation (CV %), geometric mean and geometric coefficient of variation (geo CV %) values was presented.
For PK parameter data, the number of non-missing values, arithmetic mean, standard deviation, median, minimum, and maximum values were presented.

[4] = Static vapor sorption studies; assay type: physicochemical; conditions: for Est. H2O Content (%) / Wt % Change: ambient temperature, 3 weeks, Form A staged
Excerpt: Static Vapor Sorption Studies
Static vapor sorption studies were done in hermetic humidity chambers using saturated salts, or environmental humidity chambers to control the temperature and humidity. Data collected during dynamic vapor sorption studies often are not at thermodynamic equilibrium. To gain a better understanding of the water uptake and the critical humidity level of the API, samples of the starting material (i.e., Form A) were monitored in static humidity chambers to allow the sample to equilibrate with atmospheric moisture.
In these studies, water vapor sorption was determined gravimetrically by storing samples in open aluminum dishes. Compound I diphosphate salt lot was used for this study. Samples were stored at 7 different humidity levels at ambient temperature (Table 19). Approximately 50 mg of Form A was staged at each humidity condition. The samples were weighed before placing them in the chamber and then re-weighed after 3 weeks. After re-weighing, the samples were immediately analyzed by XRD to determine whether a change in form had occurred.
The sample stored at 11% RH was an outlier and was therefore omitted from the final isotherm plot. The static isotherm plot is roughly consistent with the DVS isotherm plot (FIG. 12F) with a large moisture uptake at around 40% RH and a maximum uptake between 4 and 5 weight percent.

[5] = Hygroscopicity - Dynamic Vapor Sorption (DVS); assay type: physicochemical
Procedure: Hygroscopicity—Dynamic Vapor Sorption (DVS)
DVS is a gravimetric technique that measures how quickly and how much of a solvent (water) is sorbed by a sample. The relative humidity or vapor concentration surrounding the sample is varied while the change in mass of the sample is measured. […] The mass values at each relative humidity step are used to generate an isotherm. Isotherms are divided in two components: sorption for increasing humidity steps and desorption for decreasing humidity steps. A plot of kinetic data is also used to show the change in mass and humidity as a function of time.
The samples were analyzed using a TA Q5000 automated dynamic vapor sorption analyzer. The samples were dried at 60° C. over 180 minutes and then cooled to 25° C. with a dry nitrogen purge. The samples were then subjected to 0 to 90% RH, back to 10% RH at 25° C. in 10% RH steps.

[6] = Thermal and storage stability of salts and forms; assay type: physicochemical; conditions: for stability at ambient conditions: storage
Excerpt: On the basis of the DSC data, the acetate salt may be a hydrate.
The amorphous form may be obtained by crystallization from anhydrous solvents or by thermal desolvation of the hydrate. In certain embodiments, the preferred polymorph of Compound I diphosphate is Compound I diphosphate monohydrate (Form A): […]

[7] = Solubility in water of salts; assay type: physicochemical
[8] = human, metabolite after 200 mg DS (Fasted), single oral dose, plasma
[9] = human, metabolite after 400 mg DS (Fasted), single oral dose, plasma
[10] = metabolite after 60 mg DS (Fasted), single oral dose, plasma
[11] = metabolite after 120 mg DS (Fasted), single oral dose, plasma
[12] = metabolite after 200 mg DS (Fasted), single oral dose, plasma
[13] = metabolite after 400 mg DS (Fasted), single oral dose, plasma

O=S(=O)(O)c1ccc2ccccc2c1 [Naphthalene-2-sulfonic acid]
pKa ([1]; first value listed): 0.2

O=C(O)CNC(=O)c1ccccc1 [Hippuric acid]
pKa ([1]; first value listed): 3.6

CCCCCCCCCCCCCCCCCC(=O)O [Stearic acid]
pKa ([1]; first value listed): 4.9

O=S(=O)(O)CCS(=O)(=O)O [1,2-Ethanedisulfonic acid]
pKa ([1]; first value listed): −2.1 | pKa ([1]; second value listed): −1.5

CNC[C@H]1CN(CCc2ccsc2)CC[C@]1(O)c1cccc(C(N)=O)c1 [Compound II, 3-(3S, 4R)-3-((methylamino)methyl)-4-hydroxy-1-(2-(thiophen-3-yl)ethyl)piperidin-4-yl-benzamide]
metabolite formation in vitro [2]: predominant metabolite of Compound I | MRAUC0-t, metabolite ratio (MEB-373/MEB1170 AUC0-t values), Mean ([3]; 200 mg DS (Fasted), single oral dose, plasma): 0.0231 | MRAUC0-t, metabolite ratio (MEB-373/MEB1170 AUC0-t values), Mean ([3]; 400 mg DS (Fasted), single oral dose, plasma): 0.0276 | half-life ([3]; human, plasma, oral, 400 mg dose group (n=5), read-out: mean plasma t1/2 (converted)): 0.902 h | half-life ([3]; human, plasma, oral, one individual at 200 mg, read-out: t1/2 (converted)): 2 h | AUC(0-t) ([3]; human, plasma, 200 mg, metabolite after 200 mg DS (Fasted), single oral dose, plasma, read-out: AUC0-t (zero to the time of the last quantifiable concentration), Mean): 8.77 ng·h/mL | AUC(0-t) ([3]; human, plasma, 400 mg, metabolite after 400 mg DS (Fasted), single oral dose, plasma, read-out: AUC0-last (zero to 24 hours postdose), Mean): 27.3 ng·h/mL | AUC(0-t) ([3]; human, plasma, 400 mg, metabolite after 400 mg DS (Fasted), single oral dose, plasma, read-out: AUC0-t (zero to the time of the last quantifiable concentration), Mean): 21.1 ng·h/mL | Cmax [3, 8]: 7.91 ng/mL | Tmax [3, 8]: 2.26 h | Cmax [3, 9]: 12.2 ng/mL | AUC(0-inf) ([3]; human, metabolite after 400 mg DS (Fasted), single oral dose, plasma, read-out: AUC0-inf, Mean): 28.7 ng·h/mL | Tmax [3, 9]: 2 h | half-life ([3]; human, metabolite after 400 mg DS (Fasted), single oral dose, plasma, read-out: t1/2 (terminal plasma half-life), Mean (converted)): 0.902 h | systemic exposures relative to Compound I ([3]; in vivo): very low relative to Compound I | Tlast, Max [3, 10]: 2.50 h | Tlast, Min [3, 10]: 2.50 h | Tlast, Max [3, 11]: 4.00 h | Tlast, Min [3, 11]: 2.50 h | Tmax, Max [3, 11]: 2.50 h | Tmax, Min [3, 11]: 2.50 h | Tlast (time of last measurable concentration), Median [3, 12]: 3.25 h | Tlast, Max [3, 12]: 4.00 h | Tlast, Min [3, 12]: 2.50 h | Tmax, Max [3, 12]: 2.50 h | Tmax, Min [3, 12]: 1.00 h | Tlast (time of last measurable concentration), Median [3, 13]: 4.00 h | Tlast, Max [3, 13]: 4.00 h | Tlast, Min [3, 13]: 2.50 h | Tmax, Max [3, 13]: 2.50 h | Tmax, Min [3, 13]: 1.50 h | plasma concentrations ([3]; most subjects at doses of 20, 60, and 120 (fed) mg): below the limit of assay quantitation

O=S(=O)(O)c1cccc2c(S(=O)(=O)O)cccc12 [1,5-Naphthalenedisulfonic acid]
pKa ([1]; first value listed): −3.4 | pKa ([1]; second value listed): −2.6

CN(C)C[C@H]1CN(CCc2ccsc2)CC[C@]1(O)c1cccc(C(N)=O)c1 [Compound I diphosphate, 3-(3S,4R)-3-((dimethylamino)methyl)-4-hydroxy-1-(2-(thiophen-3-yl)ethyl)piperidin-4-yl-benzamide bisphosphate]
Est. H2O Content (%) ([4]; 11% relative humidity): 3.1% | Wt % Change ([4]; 11% relative humidity): −0.2 Wt % | Est. H2O Content (%) ([4]; 22% relative humidity): 0.8% | Wt % Change ([4]; 22% relative humidity): −2.5 Wt % | Est. H2O Content (%) ([4]; 33% relative humidity): 1.8% | Wt % Change ([4]; 33% relative humidity): −1.5 Wt % | Est. H2O Content (%) ([4]; 43% relative humidity): 3.9% | Wt % Change ([4]; 43% relative humidity): +0.6 Wt % | Est. H2O Content (%) ([4]; 75% relative humidity): 4.1% | Wt % Change ([4]; 75% relative humidity): +0.8 Wt % | Est. H2O Content (%) ([4]; 84% relative humidity): 4.4% | Wt % Change ([4]; 84% relative humidity): +1.1 Wt % | Est. H2O Content (%) ([4]; 97% relative humidity): 4.8% | Wt % Change ([4]; 97% relative humidity): +1.5 Wt % | hygroscopicity ([5]; in words): moderately hygroscopic | stability (thermal, chemical) ([6]; in words, listed as diphosphate salt): more stable; also recorded: improved stability (thermally and chemically) over the other salts | stability at ambient conditions ([6]; listed as diphosphate salt): stable to storage under ambient conditions | aqueous solubility [7]: high aqueous solubility | solubility in unbuffered water ([7]; unbuffered water): high solubility

CCS(=O)(=O)O [Ethanesulfonic acid]
pKa ([1]; first value listed): −2.1

CC1(C)C2CCC1(CS(=O)(=O)O)C(=O)C2 (centres unmarked) [Camphorsulfonic acid]
pKa ([1]; first value listed): 2.2

CN(C)C[C@H]1CN(CCc2ccsc2)CC[C@]1(O)c1cccc(C(N)=O)c1 [Form A]
change of solid state form with humidity ([4]; XRD after storage at different humidity levels): did not change at any humidity level; also recorded: retains its structure in both low and high humidity environments | relative humidity of large moisture uptake ([4]; static isotherm): around 40 % RH | maximum water/moisture uptake ([5]; at 90% RH): 4.15 wt % | heating withstood by the hydrate [6]: ~ 70 °C | stability at ambient conditions [6]: stable at ambient conditions
